Laboratory results from patent US7652015B2, “Kinase inhibitors” (Eli Lilly and Company, priority 2006, dated 2010).

Assays:
[1] = Oral exposure in male Fischer 344 rats; assay type: in vivo; details: rat, 1 mg/kg, fasted, gavage, suspension 1 mg/mL at 1 mL/kg, plasma
Description: Compounds are screened for oral exposure in male Fischer 344 rats. Animals are fasted overnight and administered test compounds prepared as suspensions in sodium carboxymethylcellulose (1% w/v) containing Tween 80 (0.25% v/v) and antifoam (0.1% w/v). Dose suspensions are prepared at 1 mg/mL and administered at 1 mL/kg by gavage. Blood samples are taken between 0.5 h and 7 h after dose administration and plasma are prepared by centrifugation. Plasma samples are analyzed using online solid phase extraction and LC/MS/MS.

TNFα [2] = assay: Inhibition of TNFα in vivo, LPS challenged mice, plasma ELISA; details: female Balb/c mice, p.o., LPS IP 400 μg/kg 1 hour after compound, plasma 1.5 hours after LPS
Description: Compounds are administered p.o. (30, 10, 3 and 1 mg/kg) to female Balb/c mice (6 mice/dose). 1 hour following compound administration at 4 doses (P.O. at volume of 0.1 mL/mouse; vehicle: 1% NaCMC/0.25% Tween-80 in water); mice are given an IP-injection of LPS at 400 μg/kg. 1.5 hours after LPS challenging, mice are anesthetized with isoflurane and blood is taken via cardiac puncture. TNFα-levels in the plasma are determined using ELISA kit from R&D Systems and dose response ED50 is determined.
The Threshold Minimum Effective Dose (TMED) 50 is the dose at which greater than or equal to 50% inhibition was achieved and statistically different from control/placebo.

p-MAPKAPK2 = assay: Inhibition of p-MAPKAPK2 in vitro, anisomycin-stimulated RAW 264.7 cells, ELISA; assay type: cell-based, murine; details: Mus musculus, RAW264.7, read-out: IC50, inhibition of p-MAPKAPK2 in vitro
Description: RAW 264.7 cells (a murine monocytic/macrophage line ATCC) are seeded at a density of 50,000 cells/well in 96-well plates with RPMI-1640 medium plus 10% fetal bovine serum (FBS) and allowed to settle and adhere to the bottom of the well for 48 hours. After reaching confluence, cells are treated for 2 hours with 10 serial dilutions of different compounds. A control compound is always included. After 2 hours, anisomicin (100 ug/ml) is added and cells are incubated for 30 minutes at 37° C. under a 5% CO2 atmosphere. Then, cells are fixed and treated with hydrogen peroxide in order to remove endogenous peroxidase. Finally, plates are blocked with FBS, washed, and an ELISA assay is carried out by using an antiphospho-MAPKAPK (Thr 334, Cell Signalling, Cat # 3041) antibody and ahP-Conjugated Secondary Antibody. This reaction is detected by using FEMTO (Pierce) which is an enhanced chemiluminiscent substrate ahP that results in rapid kinetic light output and high signal intensity.

TNFα [3] = assay: Inhibition of TNFα in vitro, LPS/interferon-γ treated mouse peritoneal macrophages, Luminex; assay type: cell-based; details: Peritoneal macrophage, 50 ng/mL LPS and 10 U/mL interferon-γ, 18 hours, read-out: IC50, suppression of TNFα in vitro
Description: 1 mL thioglycolate broth (5.0 g yeast extract, 15.0 g casitone or trypticase, 5.0 g dextrose, 2.5 g sodium chloride, 0.75 g L-cystine, 0.5 g sodium thioglycolate, 1.0 mg resazurin, and 0.75 g agar in 1.0 L distilled water) are injected into the peritoneal cavity of Balb/C female mice. At day 4 or 5 post-injection the mice are sacrificed and then injected i.p. with 4 mL RPMI-1640 medium (BioWhittaker) and the peritoneal macrophages are withdrawn by syringe.
Mouse peritoneal macrophages are counted with a hemocytometer and adjusted to 5×10^5 cells/well in 96-well plates in RPMI-1640 medium with 10% fetal bovine serum. 200 μL/well is plated in 96-well plates and the cells allowed to settle and adhere to the bottom of the well for at least 3 hours. The test compound or standard p38 kinase inhibitor is pre-treated using a series of 8 concentrations for 1 hour at 37° C. […]
50 μL of cytokine detection antibody is added and incubated for 60 seconds at room temperature on a shaker protected from light at setting 6 and then for 30 minutes at setting 3.3 washes are performed with the Bio-Plex Wash Buffer. […] Standards and samples are read on a Luminex machine. These intensity readings are then converted to picogram/milliliter units based on a 12-point standard curve created in duplicate using a four-parameter logistic regression method (Bio-Plex Manager 2.0, Bio-Rad), and the IC50 calculated. […]

Compound: CS(=O)(=O)O.Cc1ccc(-n2nc(C(C)(C)C)cc2NC(=O)Nc2ccc(N3CCN(C(=O)c4c(F)cccc4F)CC3)nc2C)cc1 [Example 5, 1-(5-tert-Butyl-2-p-tolyl-2H-pyrazol-3-yl)-3-{6-[4-(2,6-difluoro-benzoyl)-piperazin-1-yl]-2-methyl-pyridin-3-yl}-urea methanesulfonate]
- Cmax [1]: 9.39 µg/mL
- AUC(0-t) ([1]; read-out: AUC(0-7h)): 36.8 µg·h/mL
- TMED50, suppression of TNFα in vivo (TNFα [2]): 2.24 mg/kg
- IC50 (p-MAPKAPK2): 0.0045 µM
- IC50 (TNFα [3]): 0.018 µM
